Source: patent publication US20240130988A1, “Use of stilbene compounds in the preparation of anti-tumor drugs” (Guangzhou AnHao Pharmaceutical Technology CO., LTD., priority 2022, published 2024)
Read-outs that look alike come from different tables or passages of the source.

Tests used:
[1] = system: human liver cancer QGY7703; test: Human liver cancer QGY7703 transplanted tumor in nude mice; type: in vivo, BALB/C nude mice; design: key to RTV (d 18): RTV = Vt/Vo, tumor volume relative to volume at grouping (d1); settings: for inhibition in vivo at 100 mg/kg: Mus musculus, read-out: Tumor inhibitory rate %
Protocol: A human liver cancer QGY7703 model transplanted into nude mice was used in the experiment to investigate the anti-tumor effect of test compounds. The mice were intravenously injected at a dosage of 100 mg/kg for 14 days, and the tumor inhibition rate against human liver cancer QGY7703 was measured.
Preparation: The compound was prepared as the injection at the desired concentration with sterile normal saline, prior to administration.
Animal strain: BALB/C nude mice (SPF grade), weight: 19-21 g, gender: male. Number of animals in each treatment group: 8; number of animals in the control group: >12.
The tumor blocks of human liver cancer QGY7703 with good growth were cut into uniform small pieces of 3 mm under sterile conditions, and then subcutaneously inoculated into the right armpit of each mouse with a cannula. These mice were divided into 9 groups, 8 mice for each treatment group, while more than 12 mice were included in the control group.
14 days after inoculation, the average volume of the tumor block was about 100 mm^3. The animals were regrouped based on the size of the tumor, and the animals with tumors that were too large and too small were sifted out. For each group, the average volume of tumors was basically the same, and then the mice were initially treated with test compounds. The mice in the treatment groups were intravenously injected once a day for 14 days, at a dosage of 0.1 mL/20 g body weight; the mice in the control group were given the same volume of sterile normal saline. From the 14th day of inoculation, the long diameter a (mm) of the tumor, together with the perpendicular short diameter b (mm), was measured using a digital electronic caliper, twice a week. The calculation formula of tumor volume is: TV=ab^2/2, and the formula for calculating the relative tumor volume is RTV=Vt/Vo, wherein Vo denotes the tumor volume measured when the mice were divided into groups (i.e. d1), and Vt is the tumor volume from each measurement.
The result determination is based on the following formula: […]

B16 mouse melanoma = test: Lung metastasis model of B16 mouse melanoma; type: in vivo, C57BL/6 mice
Protocol: Under sterile conditions, […] mouse melanoma cells in logarithmic growth period were cultured, and then prepared as 2.8×10^5/mL of cell suspension, which was inoculated into the tail vein of C57BL/6 mice at 0.2 mL/mouse. Compound 6 was administered to the mice on the next day. Three weeks later, each animal was sacrificed, and the lungs of mice in each group were dissected. The number of metastatic colonies in the lungs of mice was detected and counted, and the average number of tumor colonies in each group was used to calculate the tumor inhibitory rate according to the formula: Tumor inhibitory rate %=[(The average number of colonies in the control group−the average number of colonies in the treatment group)/The average number of colonies in the control group]×100%, The results are shown in Table 16.

[2] = system: human lung cancer 95D and human liver cancer Bel7404; test: Tumor necrosis in vivo, HE staining; design: species or system nude mice; settings: 400 mg/kg
Protocol: Well growing solid tumors (human lung cancer […]) and human liver cancer Bel7404) were cut into uniform small pieces of approximate 2-3 mm under sterile conditions, and subcutaneously inoculated into the right armpit of each nude mouse using a cannula. 14 days after inoculation, each mouse was treated with compound 6 by oral administration at a dosage of 400 mg/kg (in a dosage by volume of 0.5 mL/20 g body weight), and compound 6 was prepared as a suitable solution with sterile normal saline. At different time points (4 h, 24 h) after administration, the nude mice were killed, and the tumor tissue was dissected and fixed with 10% formalin. The pathological sections were made, followed by HE staining and taking photos, to observe the internal necrosis and cell proliferation within the tumors.

[3] = system: Lewis non-small cell lung cancer; test: Compound 11 combined with PD-L1, Lewis non-small cell lung cancer model in mice; type: in vivo, C57BL/6 mice; settings: ip: PD-L1 10 mg/kg, compound 11 200 mg/kg, combination 10 + 200
From the text: Experimental method: The model of transplant tumor in C57BL/6 mice was established by subcutaneously inoculating Lewis non-small cell lung cancer cell lines into the armpits of C57BL/6 mice. Cells were inoculated in an amount of 1×10^6, and after formation of the transplanted tumors by inoculation, the cells were passed 3 generations in C57BL/6 mice before use. The vigorous growth of tumor tissue was cut into approximate 1.5 mm^3, and homogenized under sterile conditions, to prepare 1×10^7/mL of cell suspension. 0.1 mL of cell suspension was subcutaneously inoculated into the right armpit of C57BL/6 mice. For transplanted tumors in C57BL/6 mice, the diameter was measured with vernier caliper. After the tumor grew to 100 mm^3, the animals were randomly divided into groups, with 6 mice in each group. […] The measurement frequency of tumor diameter was once every three days. The dosage by volume was 0.1 mL/20 g. The mice in the negative control group were given an equal amount of physiological saline by intravenous injection.
The effect of combined medicaments was evaluated based on the Q value calculated by Jin's formula: […]
Ea+b represents the tumor inhibitory rate of the combined medicaments, while Ea and Eb represent the tumor inhibitory rates of medicament A and medicament B, respectively.

[4] = QGY-7703, QGY7703, 100 mg/kg iv × 14

Q: Which inhibition in vivo at 100 mg/kg ([1]; QGY-7703, iv) does the source give for COc1cc(/C=C(/C(=O)O)c2cc(OC)c(OC)c(OC)c2)cc(OC)c1 [Compound 3, (E)-3-(3,5-dimethoxyphenyl)-2-(3,4,5-trimethoxyphenyl)acrylic acid] here?
A: 63.7%

Q: What about the “RTV (d 18)” value ([1]; QGY7703, 100 mg/kg iv × 14) of the same molecule?
A: 4.67 ± 0.63

Q: COc1ccc(/C=C(/C(=O)O)c2cc(OC)c(OC)c(OC)c2)cc1F [Compound 4, (E)-3-(3-fluoro-4-methoxyphenyl)-2-(3,4,5-trimethoxyphenyl)acrylic acid] was tested. Which inhibition in vivo at 100 mg/kg ([1]; QGY-7703, iv) did it give?
A: 60.3%

Q: And the “RTV (d 18)” value ([1]; QGY7703, 100 mg/kg iv × 14)?
A: 5.11 ± 0.76

Q: COc1ccc(/C=C(/C(=O)O)c2cc(OC)c(OC)c(OC)c2)cc1O [Compound 6, (E)-3-(3-hydroxy-4-methoxyphenyl)-2-(3,4,5-trimethoxyphenyl)acrylic acid] was tested. Which “Animal weight (g) End” value (B16 mouse melanoma; 40 mg/kg iv × 10qod) did it give?
A: 20.2/25.4 g

Q: What about the “Metastasis inhibitory rate %” value (B16 mouse melanoma; 40 mg/kg iv × 10qod) of the same molecule?
A: 24.11%

Q: And the “Number of lung tumor colonies χ ± SD” value (B16 mouse melanoma; 40 mg/kg iv × 10qod)?
A: 40.1 ± 9.0

Q: And the “Animal weight (g) End” value (B16 mouse melanoma; 60 mg/kg iv × 10qod)?
A: 20.1/25.7 g

Q: What about the “Metastasis inhibitory rate %” value (B16 mouse melanoma; 60 mg/kg iv × 10qod) of the same molecule?
A: 29.03%

Q: What about the “Number of lung tumor colonies χ ± SD” value (B16 mouse melanoma; 60 mg/kg iv × 10qod) of the same molecule?
A: 37.5 ± 11.7

Q: And the “Animal weight (g) End” value (B16 mouse melanoma; 80 mg/kg iv × 10qod)?
A: 19.9/25.7 g

Q: And the “Metastasis inhibitory rate %” value (B16 mouse melanoma; 80 mg/kg iv × 10qod)?
A: 35.84%

Q: And the “Number of lung tumor colonies χ ± SD” value (B16 mouse melanoma; 80 mg/kg iv × 10qod)?
A: 33.9 ± 10.8

Q: And the “Animal weight (g) End” value (B16 mouse melanoma; 120 mg/kg iv × 10qod)?
A: 20.2/25.6 g

Q: What about the “Metastasis inhibitory rate %” value (B16 mouse melanoma; 120 mg/kg iv × 10qod) of the same molecule?
A: 34.14%

Q: And the “Number of lung tumor colonies χ ± SD” value (B16 mouse melanoma; 120 mg/kg iv × 10qod)?
A: 34.8 ± 13.4

Q: What about the “Inhibition of metastasis of B16 mouse melanoma, in words” value (B16 mouse melanoma; 40-120 mg/kg iv × 10qod) of the same molecule?
A: inhibit the metastasis of B16 mouse melanoma in a dose-dependent manner

Q: What about the “Internal necrosis within the tumors (HE staining)” value ([2]; 4 h after oral administration) of the same molecule?
A: necrosis began to appear within the tumor tissues

Q: And the “Internal necrosis within the tumors (HE staining)” value ([2]; 24 h after oral administration)?
A: massive necrosis

Q: And the inhibition in vivo at 100 mg/kg [1, 4]?
A: 71.6%

Q: And the “RTV (d 18)” value ([1]; QGY7703, 100 mg/kg iv × 14)?
A: 3.65 ± 0.47

Q: And the “Tumor inhibitory rate %” value ([1]; QGY7703, 100 mg/kg iv × 14)?
A: best inhibitory effect on liver cancer

Q: With COc1ccc(/C=C(/C(=O)O)c2cc(OC)c(OC)c(OC)c2)c(F)c1O [Compound 9, (E)-3-(2-fluoro-3-hydroxy-4-methoxyphenyl)-2-(3,4,5-trimethoxyphenyl)acrylic acid] as the molecule, how does the inhibition in vivo at 100 mg/kg [1, 4] read?
A: 63.7%

Q: What about the “RTV (d 18)” value ([1]; QGY7703, 100 mg/kg iv × 14) of the same molecule?
A: 4.67 ± 0.58

Q: What does the source list for COc1cc(/C=C(/C(=O)[O-])c2cc(OC)c(OC)c(OC)c2)cc(OC)c1F.[K+] [Compound 10]?
A: inhibition in vivo at 100 mg/kg ([1]; QGY-7703, iv): 61.3%; RTV (d 18) ([1]; QGY7703, 100 mg/kg iv × 14): 4.98 ± 0.72

Q: Which results are given for COc1cc(/C(=C\c2cc(O)c(OC)c(O)c2)C(=O)O)cc(OC)c1OC [Compound 11, (E)-3-(3,5-dihydroxy-4-methoxyphenyl)-2-(3,4,5-trimethoxyphenyl)acrylic acid]?
A: RTV (d 18) [3]: 7.62 ± 2.28; Terminal weight [3]: 23.1 ± 0.9 g; Tumor inhibitory rate % [3]: 48.76%
